Laboratory results published in paper PMC7570983, “Synthesis of Novel 2-(Isopropylamino)thiazol-4(5H)-one Derivatives and Their Inhibitory Activity of 11β-HSD1 and 11β-HSD2 in Aspect of Carcinogenesis Prevention” (Molecules, 2020).

Molecular target: T1, 11β-HSD2 (Homo sapiens, UniProt P80365)
T1 construct: gene HSD11B2
T1 sequence (P80365 1-405): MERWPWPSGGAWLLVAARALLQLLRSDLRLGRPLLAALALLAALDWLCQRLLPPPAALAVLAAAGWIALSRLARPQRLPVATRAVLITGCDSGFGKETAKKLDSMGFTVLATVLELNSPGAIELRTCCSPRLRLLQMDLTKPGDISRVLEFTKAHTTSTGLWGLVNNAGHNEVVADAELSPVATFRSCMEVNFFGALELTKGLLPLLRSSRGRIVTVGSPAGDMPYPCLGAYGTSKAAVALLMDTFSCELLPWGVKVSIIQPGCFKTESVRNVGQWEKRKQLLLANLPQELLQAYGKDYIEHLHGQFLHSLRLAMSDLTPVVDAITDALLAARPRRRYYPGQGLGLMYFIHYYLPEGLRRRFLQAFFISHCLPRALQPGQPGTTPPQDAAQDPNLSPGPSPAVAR
Assay: % inhibition at […], human kidney microsomes, cortisol ELISA
Format: cell-based
Conditions: read-out: % of 11β-HSD2 Inhibition 10 μM/IC50 [μM] ^a

CCC1SC(NC(C)C)=NC1=O (stereo not shown) [3b, 5-Ethyl-2-(isopropylamino)thiazol-4(5H)-one]
inhibition at 10 µM: 47.1 ± 2.51%
